Assay results from ChEMBL document CHEMBL3875218, “Bifunctional conjugates with potent inhibitory activity towards cyclooxygenase and histone deacetylase” (Bioorg Med Chem, 2017).

Assay: Cytotoxicity against African green monkey Vero cells assessed as cell growth inhibition after 72 hrs by MTT assay
Format: toxicity, cell-based
Details: African green monkey (Chlorocebus sabaeus)

`Cc1ccc(-c2cc(C(F)(F)F)nn2-c2ccc(S(=O)(=O)NCCCCCCC(=O)NO)cc2)cc1` gave an IC50 at 72 h of 5.53 µM.
